What all share (format): cell-based
In data set [1] the test system is Melanocytes. Description: MTT cytotoxicity assay in melanocytes. The following applies: up to the treatment concentration of 10 μM, 48 hours, FIG. 1. The procedure:
(§1) Melanocytes used were isolated from normal adult skin tissues obtained through repeated cesarean section and circumcision. Dispase 2.4U (#295 825; Roche, Mannheim, Germany) was treated for 1 hour to separate the epidermis, and 0.05% trypsin was treated for 10 minutes to isolate melanocytes. Afterwards, the cells were suspended in Medium 254, and the bovine pituitary extract (BPE), fetal bovine serum (FBS), hydrocortisone, basic fibroblast growth factor (bFGF), bovine transferrin (BT), heparin, and phorbol 12-myristate13-acetate (PMA, Invitrogen) were added and cultured. The cells that had undergone the 3rd~5th passage culture were used in the experiment.
In order to identify cytotoxicity of the 136 candidate materials, MTT assays were performed. Melanocytes were treated with the candidate materials by concentration (10, 50, and 100 μM) for 48 hours, and the cell viability was measured to determine the concentration range at which no cytotoxicity of each candidate material is observed.
Background: Tetrazolium assays rely on reduction of a dye to a coloured formazan, in cell work by metabolically active cells.

For data set [2], the system named is tyrosinase. Description: Western blot of intracellular tyrosinase expression in melanocytes (skin whitening effect). The following applies: T13 at 10 μM, 48 hours, compared to control group (CON), repeated 4 times or more, FIG. 2. Here is the method: as §1
In order to identify the skin whitening effect of the 136 candidate materials, Western blot was performed. After treating melanocytes with the candidate material at a concentration at which no cytotoxicity was shown in the melanocytes identified in Example 1-2 for 48 hours, intracellular tyrosinase expression was measured. The experiment was repeated 4 times or more.

In data set [3] the test system is tyrosinase. Put plainly: Western blot of tyrosinase expression in ARG2 overexpressing keratinocyte / normal melanocyte co-culture model (with pCMV control gene model). The following applies: 10 μM, 48 hours, compared to control group (CON), P<0.05, FIG. 3. The procedure: (§2) Keratinocytes used were isolated from normal adult skin tissues obtained through repeated cesarean section and circumcision. The cells were dispensed into EpiLife Medium, and bovine pituitary extract (BPE), bovine insulin (BI), hydrocortisone, human epidermal growth factor (EGF), and bovine transferrin (BT) were added and cultured. The cells that had undergone the 3rd~5th passage culture were used in the experiment. The pituitary extract, bovine insulin, hydrocortisone, human epidermal growth factor, and bovine transferrin were used by purchasing from Invitrogen.
(§3) Melanocytes used were isolated from normal adult skin tissues obtained through repeated cesarean section and circumcision. […]
(§4) In order to identify the skin whitening and anti-aging effects of 16 candidate materials in Example 1-2, for the skin whitening effect, each of the three types of cell models constructed in the Example 2-1 was treated with the 16 candidate materials at concentrations at which no cytotoxicity is shown in the melanocytes identified in Example 1-1 for 48 hours, and then Western blot was performed to measure the expression of tyrosinase. The experiment was repeated 4 times, and P<0.05 was determined to be significant. […] The experiment was repeated 4 times, and P<0.05 was determined to be significant.

In data set [4] the test system is tyrosinase. Put plainly: Western blot of tyrosinase expression in CDH11 overexpressing keratinocyte / melanocyte co-culture model (with pCMV control gene model). The following applies: 10 μM, 48 hours, compared to control group (CON), FIG. 3. Here is the method: as §2, §3, §4
In general terms: A western blot detects proteins with antibodies after separation by electrophoresis.

Data set [5] relates to tyrosinase. Description: Western blot of tyrosinase expression in GDA overexpressing keratinocyte / melanocyte co-culture model (with pCMV control gene model). The following applies: 10 μM, 48 hours, compared to control group (CON), P<0.05, FIG. 3. Here is the method: as §2, §3, §4
For data set [6], the system named is p16 (Ink4a). Description: Western blot of p16 (Ink4a) expression in keratinocytes (anti-aging effect). As to conditions: 10 μM, 48 hours, compared to control group (CON), P<0.05, FIG. 4. The procedure:
as §2
In order to identify the skin whitening and anti-aging effects of 16 candidate materials in Example 1-2, for the skin whitening effect, each of the three types of cell models constructed in the Example 2-1 was treated with the 16 candidate materials at concentrations at which no cytotoxicity is shown in the melanocytes identified in Example 1-1 for 48 hours, and then Western blot was performed to measure the expression of tyrosinase. The experiment was repeated 4 times, and P<0.05 was determined to be significant. In addition, for analysis on the anti-aging effect, the keratinocytes were treated with the above 16 candidate materials for 48 hours each, and then Western blot was performed to measure the expression of p16 (Ink4a). The experiment was repeated 4 times, and P<0.05 was determined to be significant.

Data set [7] has as its system tyrosinase; p16 (Ink4a). Description: Combined analysis of skin whitening (tyrosinase in three cell models) and anti-aging (p16 in keratinocytes) effects. As to conditions: 5 of 16 candidate materials; non-cytotoxic concentrations; 48 hours. The procedure:
Keratinocytes were seeded in a culture container at 2×10^5/ml, after 24 hours, pCMV plasmids containing one of three genes [arginase 2 (ARG2, NCBI Gene ID: 384), cadherin 11 (CDH11, NCBI Gene: 1009), and guanine deaminase (GDA, NCBI Gene: 9615)] were transfected into cells using Lipofectamine 2000 to induce overexpression, and after 4 hours of culture with Dulbecco's Modified Essential Medium (DMEM) culture medium without supplements, 0.5×10^5/ml melanocytes were mixed with the keratinocyte culture medium containing supplements and co-cultured in the same culture container. After 24 hours, the keratinocyte culture medium without supplements was replaced, and after 5 hours, the normal melanocytes were treated with the 16 candidate materials for 48 hours. […]
as §4

We go through one compound from patent US20260363977A1, “COSMETIC COMPOSITION FOR PREVENTING OR AMELIORATING SKIN DISEASES COMPRISING TRIBULUS TERRESTRIS-DERIVED COMPOUND AS ACTIVE INGREDIENT” (DONGGUK UNIVERSITY INDUSTRY-ACADEMIC COOPERATION FOUNDATION, priority 2022, published 2026).

In the case of `COc1cc([C@@H](O)[C@H](CO)c2ccc(O)c(OC)c2)ccc1O` [T13], the “cytotoxicity in melanocytes (cell viability, MTT)” value in data set [1] was “did not show cytotoxicity”. Also, the “intracellular tyrosinase expression in melanocytes” value in data set [2] is “significantly reduced”. Also, the “tyrosinase expression, ARG2 overexpressing co-cultured cell model” value in data set [3] (ARG2 model, more distinct than in pCMV model) was “degree of reduction in tyrosinase expression was more distinct”. Further, the figures for the “tyrosinase expression, control gene overexpressing co-cultured cell model (pCMV)” value in data set [3] (pCMV model of the ARG2 experiment), in data set [4] (pCMV model of the CDH11 experiment) and in data set [5] (pCMV model of the GDA experiment) were “significant decrease in tyrosinase expression”, “did not show a significant difference in expression” and “significant reduction in tyrosinase expression”, respectively. Also, the “tyrosinase expression, CDH11 overexpressing co-cultured cell model” value in data set [4] (CDH11 model) is “tyrosinase expression was reduced”. Moreover, in data set [5] (GDA model, more distinct than in pCMV model), the “tyrosinase expression, GDA overexpressing co-cultured cell model” value was “degree of reduction in tyrosinase expression was more distinct”. The “p16 (Ink4a) expression in keratinocytes” value in data set [6] was “significantly reduced”. Also, the “skin whitening and anti-aging effects shown together” value in data set [7] was “skin whitening and anti-aging effects were shown together”.
